Here are results for twelve molecules from patent publication US20260356856A1, “KRAS G12S AND G12C INHIBITORS” (MIRATI THERAPEUTICS, INC., priority 2023, published 2026).

Assay [1] concerns the target T1, KRas-mediated phosphorylation of ERK in A549 cells (Homo sapiens, UniProt P01116, G12S).
T1 construct: pERK HTRF read-out
Briefly: Inhibition of KRas-mediated phosphorylation of ERK (HTRF), A549 cells. In kind it is cell-based. To be noted: HTRF pERK, 3 h incubation. For orientation: TR-FRET usually uses a lanthanide donor and a delayed reading to cut background.

The target of assay [2] is T2, KRas G12C (Homo sapiens, UniProt P01116, G12C).
T2 construct: Biotinylated KRas (corresponding to amino acids 1-169, produced at Accelegan Inc.); biotin (biotinylated); purchased Accelegan Inc
Briefly: KRas binding assay, TR-FRET displacement of Cy5 labelled tracer. To be noted: 60-minute incubation at room temperature, 1% DMSO, pH 7.5. Summed up:
(§1)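 Assay buffer was HEPES (50 mM, pH 7.5) with MgCl2 (5 mM), DTT (1 mM) and Tween-20 (0.005%). Biotinylated KRas spanning residues 1-169 met tracer, terbium streptavidin and compound (1% DMSO, final) for 60 minutes at ambient temperature before reading. POC values were fitted for IC50.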

Assay [3] addresses T3, KRas WT (Homo sapiens, UniProt P01116).
T3 construct: Biotinylated KRas (corresponding to amino acids 1-169, produced at Accelegan Inc.); biotin (biotinylated); purchased Accelegan Inc
The assay is described as above. As to conditions: 60-minute incubation at room temperature, 1% DMSO, pH 7.5. The procedure, abridged:
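Biotinylated KRas (residues 1-169) was incubated with tracer, terbium-streptavidin and compound at 1% DMSO final in 50 mM HEPES pH 7.5 containing 5 mM MgCl2, 0.005% Tween-20 and 1 mM DTT. The plate was read after 60 min at room temperature, and percent-of-control data were fit to a 4-parameter IC50 equation.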

The target in assay [4] is T4, KRas G12S (Homo sapiens, UniProt P01116, G12S).
T4 construct: Biotinylated KRas (corresponding to amino acids 1-169, produced at Accelegan Inc.); biotin (biotinylated); purchased Accelegan Inc
The assay is described as above. As to conditions: 60-minute incubation at room temperature, 1% DMSO, pH 7.5. The procedure, abridged: as §1

Assay [5] concerns the target T5, KRas-mediated phosphorylation of ERK in MKN1 cells (Homo sapiens, UniProt P01116).
T5 construct: pERK HTRF read-out
Description: Inhibition of KRas-mediated phosphorylation of ERK (HTRF), MKN1 cells. In kind it is cell-based. To be noted: MKN1 cells (KRas WT); HTRF pERK; 3 h incubation. As for the experimental part: Inhibition of KRas Phosphorylation of ERK (HTRF) by Exemplary Compounds of Formula (Ia) or (Ib)
Cisbio HTRF Advanced pERK Assay Catalog #64AERPEH • Cells: MKN1, PSN1 • Procedure: • 1. Day 1: Seed 6,000 cells/well −25 μl/well in 384-well white solid bottom plate; RPM1_10% FBS. Incubate overnight at 37 °C/5% CO2. • 2.

The target in assay [6] is T6, KRas-mediated phosphorylation of ERK in H358 cells (Homo sapiens, UniProt P01116, G12C).
T6 construct: pERK HTRF read-out
Briefly: Inhibition of KRas-mediated phosphorylation of ERK (HTRF), H358 cells. In kind it is cell-based. To be noted: HTRF pERK, 3 h incubation.

Some results are limits rather than exact numbers.

T2 sequence (P01116 1-169 isoform P01116-2 G12C): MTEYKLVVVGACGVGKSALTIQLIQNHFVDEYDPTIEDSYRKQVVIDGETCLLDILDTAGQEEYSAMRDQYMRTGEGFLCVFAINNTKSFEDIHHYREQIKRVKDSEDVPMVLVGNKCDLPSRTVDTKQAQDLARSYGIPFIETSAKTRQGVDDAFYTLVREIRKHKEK
T5 sequence (P01116 1-188 isoform P01116-2): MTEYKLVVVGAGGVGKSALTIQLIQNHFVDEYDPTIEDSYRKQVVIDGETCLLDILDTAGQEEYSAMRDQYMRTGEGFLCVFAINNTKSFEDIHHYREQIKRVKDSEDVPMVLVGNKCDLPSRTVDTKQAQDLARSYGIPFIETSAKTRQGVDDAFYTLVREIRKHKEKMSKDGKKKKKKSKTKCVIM
T3 sequence (P01116 1-169 isoform P01116-2): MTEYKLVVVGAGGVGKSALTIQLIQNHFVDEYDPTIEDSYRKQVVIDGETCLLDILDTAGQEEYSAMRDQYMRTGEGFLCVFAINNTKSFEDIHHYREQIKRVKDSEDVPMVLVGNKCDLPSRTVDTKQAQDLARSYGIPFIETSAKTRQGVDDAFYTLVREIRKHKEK
T4 sequence (P01116 1-169 isoform P01116-2 G12S): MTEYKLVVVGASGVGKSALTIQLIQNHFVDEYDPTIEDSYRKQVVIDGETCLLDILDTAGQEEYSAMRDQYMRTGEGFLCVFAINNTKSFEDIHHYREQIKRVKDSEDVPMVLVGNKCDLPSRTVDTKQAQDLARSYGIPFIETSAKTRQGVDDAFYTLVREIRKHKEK
T6 sequence (P01116 1-188 isoform P01116-2 G12C): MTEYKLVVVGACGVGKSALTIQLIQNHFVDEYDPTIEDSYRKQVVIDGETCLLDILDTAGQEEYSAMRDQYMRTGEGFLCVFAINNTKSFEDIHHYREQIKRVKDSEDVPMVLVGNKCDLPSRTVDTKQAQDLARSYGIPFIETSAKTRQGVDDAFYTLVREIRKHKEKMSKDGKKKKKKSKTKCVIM
T1 sequence (P01116 1-188 isoform P01116-2 G12S): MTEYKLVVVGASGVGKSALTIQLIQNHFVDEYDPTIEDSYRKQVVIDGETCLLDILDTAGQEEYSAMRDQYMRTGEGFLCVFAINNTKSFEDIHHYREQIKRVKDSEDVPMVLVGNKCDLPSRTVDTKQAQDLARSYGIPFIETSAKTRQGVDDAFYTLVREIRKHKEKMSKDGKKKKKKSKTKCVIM

On to `CCc1c(F)ccc2cc(O)cc(-c3ncc4c(N5CCC(C(=O)N(C)C(=O)C(C)(C)C)CC5)nc(OC[C@@]56CCCN5C[C@H](F)C6)nc4c3F)c12` [Example 224, 1-(7-(8-ethyl-7-fluoro-3-hydroxynaphthalen-1-yl)-8-fluoro-2-(((2R,7aS)-2-fluorotetrahydro-1H-pyrrolizin-7a(5H)-yl)methoxy)pyrido[4,3-d]pyrimidin-4-yl)-N-methyl-N-pivaloylpiperidine-4-carboxamide], for which the IC50 is 3770 nM in assay [1]; 526 nM in assay [2]; 177 nM in assay [3]; 257 nM in assay [4]; 321 nM in assay [5]; 1330 nM in assay [6].

For `CCc1c(F)ccc2cc(O)cc(-c3ncc4c(N(C)CCC(=O)N(C)C(C)=O)nc(OC[C@@]56CCCN5C[C@H](F)C6)nc4c3F)c12` [Example 273, N-acetyl-3-((7-(8-ethyl-7-fluoro-3-hydroxynaphthalen-1-yl)-8-fluoro-2-(((2R,7aS)-2-fluorotetrahydro-1H-pyrrolizin-7a(5H)-yl)methoxy)pyrido[4,3-d]pyrimidin-4-yl)(methyl)amino)-N-methylpropanamide], the IC50 in assay [1] was determined as 745 nM; in assay [2], 30 nM; in assay [3] it was 58 nM; in assay [4] it was 40 nM; in assay [5], 340 nM; in assay [6] it was 494 nM.

Take `CN(CCNC(=O)n1ccnn1)c1nc(OC[C@@]23CCCN2C[C@H](F)C3)nc2c(F)c(-c3ccc(F)c4sc(N)c(C#N)c34)c(Cl)cc12` [Example 249, N-(2-((7-(2-amino-3-cyano-7-fluorobenzo[b]thiophen-4-yl)-6-chloro-8-fluoro-2-(((2R,7aS)-2-fluorotetrahydro-1H-pyrrolizin-7a(5H)-yl)methoxy)quinazolin-4-yl)(methyl)amino)ethyl)-1H-1,2,3-triazole-1-carboxamide]: the 50% inhibitory concentration (IC50) in assay [1] was 249 nM; in assay [2] it was less than 2 nM; in assay [3] it was 11 nM; in assay [4], 7 nM; in assay [5], 223 nM; in assay [6] it was 2 nM.

On to `Cc1ccn(C(=O)C2CCCN(c3nc(OC[C@@]45CCCN4C[C@H](F)C5)nc4c(F)c(-c5c(I)ccc(N)c5C#N)c(Cl)cc34)CC2)n1` (stereo partly drawn) [Example 263, 6-amino-2-(6-chloro-8-fluoro-2-(((2R,7aS)-2-fluorotetrahydro-1H-pyrrolizin-7a(5H)-yl)methoxy)-4-(4-(3-methyl-1H-pyrazole-1-carbonyl)azepan-1-yl)quinazolin-7-yl)-3-iodobenzonitrile], for which the IC50 was 495 nM in assay [1]; 1720 nM in assay [2]; 2130 nM in assay [3]; 490 nM in assay [4]; 8920 nM in assay [5]; greater than 10000 nM in assay [6].

For the molecule `CCc1c(F)ccc2cc(O)cc(-c3ncc4c(N5CCCC(C(=O)n6ccc(C)n6)CC5)nc(OCC5(CN(C)C)CC5)nc4c3F)c12` (stereo not drawn) [Example 167, (1-(2-((1-((dimethylamino)methyl)cyclopropyl)methoxy)-7-(8-ethyl-7-fluoro-3-hydroxynaphthalen-1-yl)-8-fluoropyrido[4,3-d]pyrimidin-4-yl)azepan-4-yl)(3-methyl-1H-pyrazol-1-yl)methanone], the IC50 in assay [1] is 326 nM; in assay [2], 94 nM; in assay [3], 528 nM; in assay [4], 29 nM; in assay [5], 3050 nM; in assay [6] it was 5100 nM.

Regarding `CCc1c(F)ccc2cc(O)cc(-c3ncc4c(N(CCCC(=O)n5ccc(C)n5)C5CC5)nc(OC[C@@]56CCCN5C[C@H](F)C6)nc4c3F)c12` [Example 165, 4-(cyclopropyl(7-(8-ethyl-7-fluoro-3-hydroxynaphthalen-1-yl)-8-fluoro-2-(((2R,7aS)-2-fluorotetrahydro-1H-pyrrolizin-7a(5H)-yl)methoxy)pyrido[4,3-d]pyrimidin-4-yl)amino)-1-(3-methyl-1H-pyrazol-1-yl) butan-1-one], the IC50 in assay [1] was 62 nM; in assay [2], 2 nM; in assay [3], 52 nM; in assay [4], 4 nM; in assay [5], 226 nM; in assay [6], 450 nM.

As to `CC(=O)N(C)C(=O)[C@@H]1C[C@H]1CNc1nc(OC[C@@]23CCCN2C[C@H](F)C3)nc2c(F)c(-c3ccc(F)c4sc(N)c(C#N)c34)c(Cl)cc12` [Example 238, trans-N-acetyl-2-(((7-(2-amino-3-cyano-7-fluorobenzo[b]thiophen-4-yl)-6-chloro-8-fluoro-2-(((2R,7aS)-2-fluorotetrahydro-1H-pyrrolizin-7a(5H)-yl)methoxy)quinazolin-4-yl)amino)methyl)-N-methylcyclopropane-1-carboxamide], the IC50 was 145 nM in assay [1]; 11 nM in assay [2]; 10 nM in assay [3]; 14 nM in assay [4]; 40 nM in assay [5]; 84 nM in assay [6].

Take `CCc1c(F)ccc2cc(O)cc(-c3ncc4c(N(C)CCC(=O)n5ccc(C)n5)nc(OC[C@@]56CCCN5C[C@H](F)C6)nc4c3F)c12` [Example 121, 3-((7-(8-ethyl-7-fluoro-3-hydroxynaphthalen-1-yl)-8-fluoro-2-(((2R,7aS)-2-fluorotetrahydro-1H-pyrrolizin-7a(5H)-yl)methoxy)pyrido[4,3-d]pyrimidin-4-yl)(methyl)amino)-1-(3-methyl-1H-pyrazol-1-yl) propan-1-one]: the IC50 in assay [1] came to 243 nM; in assay [2], 16 nM; in assay [3] it was 30 nM; in assay [4] it was 16 nM; in assay [5] it was 875 nM; in assay [6] it was 382 nM.

Consider `CCc1c(F)ccc2cc(O)cc(-c3ncc4c(N(C)CC(C)CC(=O)N(C)C(C)=O)nc(OC[C@@]56CCCN5C[C@H](F)C6)nc4c3F)c12` (stereo partly drawn) [Example 283, N-acetyl-4-((7-(8-ethyl-7-fluoro-3-hydroxynaphthalen-1-yl)-8-fluoro-2-(((2R,7aS)-2-fluorotetrahydro-1H-pyrrolizin-7a(5H)-yl)methoxy)pyrido[4,3-d]pyrimidin-4-yl)(methyl)amino)-N,3-dimethylbutanamide], for which the IC50 came out at 701 nM in assay [1]; 183 nM in assay [2]; 103 nM in assay [3]; 134 nM in assay [4]; 323 nM in assay [5]; 1320 nM in assay [6].

For `CCc1c(F)ccc2cc(O)cc(-c3ncc4c(N5CCC(C(=O)n6cc(C(C)(C)C)cn6)CC5)nc(OC[C@@]56CCCN5C[C@H](F)C6)nc4c3F)c12` [Example 72, (4-(tert-butyl)-1H-pyrazol-1-yl)(1-(7-(8-ethyl-7-fluoro-3-hydroxynaphthalen-1-yl)-8-fluoro-2-(((2R,7aS)-2-fluorotetrahydro-1H-pyrrolizin-7a(5H)-yl)methoxy)pyrido[4,3-d]pyrimidin-4-yl)piperidin-4-yl)methanone], the IC50 in assay [1] is 748 nM; in assay [2], 408 nM; in assay [3], 572 nM; in assay [4], 274 nM; in assay [5], 3330 nM; in assay [6], 7290 nM.

As for `CCc1c(F)ccc2cc(O)cc(-c3ncc4c(N5CCN(C(=O)n6ccnn6)CC5)nc(OC[C@@]56CCCN5C[C@H](F)C6)nc4c3F)c12` [Example 151, (4-(7-(8-ethyl-7-fluoro-3-hydroxynaphthalen-1-yl)-8-fluoro-2-(((2R,7aS)-2-fluorotetrahydro-1H-pyrrolizin-7a(5H)-yl)methoxy)pyrido[4,3-d]pyrimidin-4-yl)piperazin-1-yl)(1H-1,2,3-triazol-1-yl)methanone], the IC50 in assay [1] amounted to 1210 nM; in assay [2] it was 12 nM; in assay [3], 9 nM; in assay [4] it was 18 nM; in assay [5] it was 72 nM; in assay [6], 14 nM.

On to `Cc1ccn(C(=O)[C@@H]2C[C@H]2CNc2nc(OC[C@@]34CCCN3C[C@H](F)C4)nc3c(F)c(-c4ccc(F)c5sc(N)c(C#N)c45)c(Cl)cc23)n1` [Example 181, 2-amino-4-(6-chloro-8-fluoro-2-(((2R,7aS)-2-fluorotetrahydro-1H-pyrrolizin-7a(5H)-yl)methoxy)-4-((((trans)-2-(3-methyl-1H-pyrazole-1-carbonyl)cyclopropyl)methyl)amino)quinazolin-7-yl)-7-fluorobenzo[b]thiophene-3-carbonitrile], for which the IC50 in assay [1] came to 15 nM; in assay [2], 10 nM; in assay [3] it was 17 nM; in assay [4], 9 nM; in assay [5], 111 nM; in assay [6] it was 71 nM.

By IC50 is commonly meant the midpoint of a concentration-inhibition curve. A higher IC50 goes with a need for much substance.
